Assay results as given in US9446071B2, “Antimicrobially active compositions based on zinc compound, glycerine monoalkyl ether and antioxidant” (L'AIR LIQUIDE SOCIETE ANONYME POUR L'ETUDE ET …, priority 2012, dated 2016).

System: Streptococcus mutans ATCC: 25175
Experiment: Minimal inhibitory concentration (method C) of mouthwash formulations
Assay type: cell-based
Conditions: pH 4
Procedure: The minimal inhibitory concentration which is required by a preparation in order to inhibit the growth of a defined microorganism is tested.
5 ml of the given product test solution (optionally doubly concentrated) is mixed with 5 ml of doubly concentrated CSS broth. The tubes are then inoculated with 0.1 ml of a test suspension containing 10^8 microbes.
The assessment is performed after 48 hr incubation at 36° C.±1° C. (C. albicans 30° C.±1° C.).
Further, the action of combinations according to the invention against the caries-causing organism Streptococcus mutans in the mouthwash formulations shown in Table 10 was tested.
The pH of the formulations was adjusted to pH 4.

Row | Compound | Activity against Streptococcus mutans
1 | O=C([O-])CC(O)(CC(=O)[O-])C(=O)[O-].O=C([O-])CC(O)(CC(=O)[O-])C(=O)[O-].[Zn+2].[Zn+2].[Zn+2] [TZC, trizinc citrate] | not sufficient
2 | PEG-40 macrogol glycerol hydroxystearate [Mghs] | no intrinsic activity
